In US20040029172A1, “Generation of combinatorial libraries and assessment thereof by deconvolution” (priority 2000, published 2004):

Target: Concanavalin A (Canavalia ensiformis, UniProt P02866)
Conditions: FIG. 5; complete library 2:1-6 and 2:A-I
Experimental: Concanavalin A and all reagents were obtained from common commercial sources (Lancaster, Fluka, Aldrich, Bachem, Sigma). […] The binding effect of the equilibrated mixtures was determined using competitive inhibition of enzyme-labelled concanavalin A, and were carried out using a Victor microtiter plate reader.
The complete library (CL) was designed to contain near equal amounts of each final species at a concentration of approximately 12 μM. The final solution contained 2.5 mM of each carbohydrate aldehyde (2:1-6), and varying amounts of hydrazides: 2:A, 70 μM; 2:B-E, 0.24 mM; 2:F, 0.42 mM; 2:G, 0.65 mM; 2:H, 0.88 mM; 2:I, 2.5 mM. The mixture was made in ammonium formate buffer at pH 4.0, and was equilibrated at ambient temperature for one week to ensure full reaction.
The different sublibraries (SL1-SLI) were prepared under identical conditions, where one component (2:1-6, 2:A-I) was removed from the mixture each time. Aliquots of the solution were subsequently taken out to test the inhibitory activity on Concanavalin A.

O=Cc1ccc(OC2OC(CO)C(O)C(O)C2O)cc1 (stereo not shown) [2:6]
effect on Con A binding when the component is removed from the complete library: largest effects
